Entries after “also recorded” stand apart in the source; their conditions may differ. Read-outs that look alike come from different tables or passages of the source.
Legend:
HRas^G12V [1] = target: T1, HRas^G12V (Homo sapiens (Human), UniProt P01112, G12V); test: 19F DLB (ligand-observed 19F NMR) score; type: binding; design: scale not given here
Outline: (§1)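 Fragments were pooled at 240 μM each with 50 μM HRas G12V in 25 mM sodium phosphate pH 7.4, 150 mM NaCl, 5 mM MgCl2, 1 mM TCEP-d16, 10% D2O, and screened by 1H-decoupled 1D 19F NMR at 600 MHz (64 scans, 5 s relaxation delay). T2-CPMG data were collected with 1 ms echoes and eight delays from 1 to 800 ms.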

HRas^G12V [2] = target: T1, HRas^G12V; test: 19F T2-CPMG NMR score; type: binding
Outline: as §1

HRas^G12V [3] = target: T1, HRas^G12V; test: Dissociation constant by NMR (1H/15N Fast-HSQC, 1H 1D protein-observed); type: binding
Method: All NMR experiments were collected using 3 mm NMR tubes on a 600 MHz Bruker Avance III spectrometer equipped with a QCI helium cryoprobe and a SampleJet sample changer. The buffer used for NMR experiments was 25 mM sodium phosphate pH 7.4, 150 mM NaCl, 5 mM MgCl2, 1 mM TCEP-d16, 10% D2O. Data were processed using Bruker TopSpin.
^1H/^15N Fast-HSQC experiments (Mori et al., Journal of Magnetic Resonance, Series B, Volume 108, Issue 1, July 1995, Pages 94-98) were recorded at a protein concentration of 50-100 μM.
Dissociation constants were obtained by monitoring changes in chemical shifts as a function of ligand concentration. The changes in chemical shifts (d) were calculated according to the following equation (Williamson, Progress in Nuclear Magnetic Resonance Spectroscopy, Volume 73, August 2013, Pages 1-16): d=√(1/2[δ_H^2+[…]]), Where δ are the changes in chemical shift in ppm for ^1H and ^15N and the correction factor (α) was set at 0.15.
^1H 1D protein-observed experiments were recorded with 15-50 μM protein. The standard Bruker 1D ^1H sequence with excitation sculpting (zgesgp) was employed. A relaxation delay of 1 s was employed in order to use 256 scans while still keeping experimental time fairly short. Changes in protein chemical shift or peak intensity in the methyl region were monitored against compound concentration.

HRas^G12V [4] = target: T1, HRas^G12V; test: Overall binding/activity in the various assays (NMR consensus binding)
Outline: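 Fragments (240 µM each, pooled) screened against 50 µM HRas^G12V in 25 mM sodium phosphate pH 7.4, 150 mM NaCl, 5 mM MgCl2, 1 mM TCEP-d16 by 1H-decoupled 1D 19F NMR. Hits confirmed by ligand- and protein-observed 1D 1H, STD and T2-CPMG (aggregation check); consensus binding ranked, with 15N HSQC for sites and Kd.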

KRAS^G12D-GDP [5] = target: T2, KRAS^G12D-GDP (Homo sapiens (Human), UniProt P01116, G12D); test: 19F DLB score, KRAS^G12D-GDP; type: binding; design: scale not given here
Method: (§2) Since the fragment library was curated using phosphate buffer, 25 mM sodium phosphate pH 7.4, 150 mM NaCl, 5 mM MgCl2, 1 mM TCEP-d16, 10% D2O Fresh TCEP was used for experiments. Screening was performed using ^1H-decoupled 1D ^19F experiment Bruker experiment (zgfhigqn.2) with 64 scans and a relaxation delay of 5 seconds. 50 μM HRas^G12V and 240 μM of each fragment in pools (mixtures) were used.
(§3) Hit confirmation was performed using the same ^19F experiment as the screen. Ligand-observed 1D ^1H, protein-observed 1D ^1H, ^1H T2-CPMG as well as Saturation Transfer Difference (STD) experiments were also run on the same samples. Ligand-observed 1D ^1H was run using the standard Bruker sequence with excitation sculpting (zgesgp) with a relaxation delay of 10 seconds and 16 scans per spectrum. Protein-observed 1D ^1H was performed using the same sequence with a relaxation delay of 1 second and 256 scans in order to increase the signal-to-noise of the protein resonances, while keeping the experimental time relatively short. The ^1H T2-CPMG experiment employed a modified version of the Bruker 1D ^1H zgesgp experiment with the addition of a CPMG pulse train after the first 90° excitation pulse. Total duration for each spin echo was fixed at 1 ms (τ=500 μs), while the number of echoes in the pulse train was varied according to the total time (T). The number of scans for each spectrum was 4 and eight delay times were run on each sample, ranging from 1 ms to 800 ms.
(§4) The activity of compounds of the invention regarding KRAS^G12D-GDP was measured in the same as in Example 80. The results obtained with the compounds in the various assays described above are depicted in Table 23.

KRAS^G12D-GDP [6] = target: T2, KRAS^G12D-GDP; test: 19F T2-CPMG score, KRAS^G12D-GDP; type: binding
Method: as §2, §3, §4

T2 sequence (P01116-2 other isoform, or with tags, fused parts or gaps G12D): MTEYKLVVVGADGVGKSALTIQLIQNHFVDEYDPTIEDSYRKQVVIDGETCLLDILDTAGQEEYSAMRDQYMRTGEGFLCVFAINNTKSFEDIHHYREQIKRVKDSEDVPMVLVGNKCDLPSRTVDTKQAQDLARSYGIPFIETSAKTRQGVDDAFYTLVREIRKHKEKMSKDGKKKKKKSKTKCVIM

| Compound | 19F DLB Score (HRas^G12V [1]) | 19F T2-CPMG Score (HRas^G12V [2]) | Kd (HRas^G12V [3]; HRas^G12V, read-out: NMR Kd) [mM] | Activity ranking on HRas^G12V (in words) (HRas^G12V [4]) | 19F DLB Score (KRAS^G12D-GDP [5]) | 19F T2-CPMG Score (KRAS^G12D-GDP [6]) | 19F DLB Score (HRas^G12V [1]; @ 50 uM) | Binding to HRas^G12V (in words) (HRas^G12V [4]) | Kd (HRas^G12V [3]) [mM] |
| --- | --- | --- | --- | --- | --- | --- | --- | --- | --- |
| CC(=O)Nc1cccc(NC(=O)Cc2c[nH]c3cc(F)ccc23)c1 [Compound 10014] | 3.12 | 38.3 | 2.32 | More active | 2.46 | >LOQ |  |  |  |
| O=C(Cc1c[nH]c2cc(F)ccc12)Nc1ccccc1 [Compound 10021, 2-(6-fluoro-1H-indol-3-yl)-N-phenyl acetamide] |  | 38.83 |  |  | 2.62 | >LOQ | 8.73 @ 50 uM |  |  |
| CN(C)S(=O)(=O)NCCc1c[nH]c2cc(F)ccc12 [Compound 10004, reference compound] |  | 19.49 | 6.16 to 6.4 |  | 2.06 | 9.41 | 5.34 @ 50 uM |  |  |
| O=C(Cc1c[nH]c2cc(F)ccc12)NC1CCOCC1 [Compound 10027] | 1.42 | 3.77 | 7.4 |  |  |  |  | low or no binding |  |
| CN(C)C[C@@H]1CN(C(=O)Cc2c[nH]c3cc(F)ccc23)CCO1 [Compound 10159] | 3.93 | 19.26 | 2.95 to 3.43 | More active |  |  |  |  |  |
| CC(CCO)NC(=O)Cc1c[nH]c2cc(F)ccc12 (centres unmarked) [Compound 10026] | 1.23 | 3.17 | 10 |  |  |  |  | low or no binding |  |
| NC(=O)C1CN(C(=O)Cc2c[nH]c3cc(F)ccc23)C1 [Compound 10114, 1-(2-(6-fluoro-1H-indol-3-yl)acetyl)azetidine-3-carboxamide] | 2.14 | 15.2 | 11.1 |  |  |  |  |  |  |
| CN(C)C[C@H]1CN(C(=O)Cc2c[nH]c3cc(F)ccc23)CCO1 [Compound 10160, (S)-1-(2-((dimethylamino)methyl)morpholino)-2-(6-fluoro-1H-indol-3-yl) ethan-1-one] | 6.24 |  | 1.28 |  |  |  |  |  |  |
| COCCNC(=O)Cc1c[nH]c2cc(F)ccc12 [Compound 10025] | 1.22 | 1.68 | 6 |  |  |  |  | low or no binding |  |
| O=C1CCN(C(=O)Cc2c[nH]c3cc(F)ccc23)CC1 [Compound 10106] | 2.25 | 13.41 |  |  |  |  |  |  | 6.43 |
| CCOC(=O)Cc1c[nH]c2cc(F)ccc12 [Compound 11003, ethyl 2-(6-fluoro-1H-indol-3-yl) acetate] | 2.23 | 11.18 |  |  | 2.20 | 14.19 |  |  |  |
| CS(=O)(=O)NCCc1c[nH]c2cc(F)ccc12 [Compound 10006, reference compound] | 3.24 | 19.5 | 10 |  |  |  |  |  |  |
| O=C(Cc1c[nH]c2ncc(F)cc12)N1CCC1 [Compound 10035, 1-(azetidin-1-yl)-2-(5-fluoro-1H-pyrrolo[2,3-b]pyridin-3-yl)ethan-1-one] | 0.91 | −0.11 | > 10 | More active |  |  |  |  |  |
| O=C(Cc1c[nH]c2cc(F)ccc12)N1CCCCC1 [Compound 10053] | 5.85 | 39.43 | 1.53 | More active | 4.89 | >LOQ |  |  |  |
| CC(C(=O)N1CCC1)c1c[nH]c2cc(F)ccc12 (centres unmarked) [Compound 10066, 1-(azetidin-1-yl)-2-(6-fluoro-1H-indol-3-yl) propan-1-one] | 2.94 | 21.34 | 3.51 to 4 | More active | 2.22 | 9.14 |  |  |  |
| O=C(c1ccc(F)cc1F)N1CCC(c2c[nH]c3cc(F)ccc23)CC1 [Compound 11026] | 2.02 | −1.86 |  |  |  |  |  | low or no binding |  |
| CC(=O)N[C@@H]1CCCN(C(=O)Cc2c[nH]c3cc(F)ccc23)C1 [compound 10137] | 2.02 | 6.16 |  |  |  |  |  | low or no binding |  |
| Fc1ccc2c(C3CCNC3)c[nH]c2c1 (centres unmarked) [Compound 11007] | 1.76 | 6.67 |  |  |  |  |  | low or no binding |  |
| O=C1CC(c2c[nH]c3cc(F)ccc23)C(=O)N1 (centres unmarked) [Compound 11006] | 3.43 | 24.24 |  | More active; also recorded: Most active |  |  |  |  |  |
| CCOC(=O)[C@@H]1CN(C(=O)Cc2c[nH]c3cc(F)ccc23)CCO1 [Compound 10168] | 1.43 | 4.84 |  |  |  |  |  | low or no binding |  |
| CC(=O)N[C@H]1CCN(C(=O)Cc2c[nH]c3cc(F)ccc23)C1 [Compound 10041] | 1.86 | 3.92 | 5.2 to 9 |  |  |  |  |  |  |
| O=C(O)CC1CCN(C(=O)Cc2c[nH]c3cc(F)ccc23)CC1 [Compound 10127] | 1.3 | 4.35 |  |  |  |  |  | low or no binding |  |
| COCCOc1cccc(NC(=O)Cc2c[nH]c3cc(F)ccc23)c1 [compound 10094] | 3 | 2.5 |  |  |  |  |  | low or no binding |  |
| CC1CN(C(=O)Cc2cc(F)cc3[nH]ccc23)C1 [Compound 10172, 2-(6-fluoro-1H-indol-4-yl)-1-(3-methylazetidin-1-yl) ethan-1-one] | 0.93 | 0.11 |  |  |  |  |  | low or no binding |  |
| O=C(O)CN1CCC(NC(=O)Cc2c[nH]c3cc(F)ccc23)CC1 [Compound 10108, 2-(4-(2-(6-fluoro-1H-indol-3-yl)acetamido)piperidin-1-yl)acetic acid] | 1.34 | 5.72 |  |  |  |  |  | low or no binding |  |
| O=C(Cc1c[nH]c2ccccc12)Nc1ccc(F)cc1 [Compound 10067] | 1.2 | 2.15 |  |  |  |  |  | low or no binding |  |

— patent publication US20240408064A1, “RAS INHIBITORS, COMPOSITIONS AND METHODS OF USE THEREOF” (GENETOLEAD INC., priority 2021, published 2024)
